Patent publication US20050214378A1, “Stealth lipid nanocapsules, methods for the preparation thereof and use thereof as a carrier for active principle(s)” (ETHYPHARM, priority 2002, published 2005)

Experiment: Solubility of paclitaxel and docetaxel in triglycerides
Type: physicochemical
Conditions: no recrystallization at room temperature; for Solubility in Labrafac CC: triglyceride Labrafac CC, C8 content 56.7%; for Solubility in Miglyol 810 N: triglyceride Miglyol 810 N, C8 content 70.4%; for Solubility in Tricaprylin: triglyceride Tricaprylin, C8 >99%
Description: A solution of docetaxel or paclitaxel in triglycerides, which will constitute the inner core of the lipid nanocapsules, is prepared by dissolving the drug into the triglyceride at 75° C. The amount of drug is adjusted in order to obtain solutions that will not recrystallize upon cooling to room temperature.

Solubility in Labrafac CC [% w/w]	Solubility in Miglyol 810 N [% w/w]	Solubility in Tricaprylin [% w/w]	Compound
2	3.9	7	CC(=O)O[C@@]12CO[C@@H]1C[C@H](O)[C@@]1(C)C(=O)[C@H](O)C3=C(C)[C@@H](OC(=O)[C@H](O)[C@@H](NC(=O)OC(C)(C)C)c4ccccc4)C[C@@](O)([C@@H](OC(=O)c4ccccc4)[C@H]21)C3(C)C [Docetaxel, docetaxel]
1.6	2.7	6	CC(=O)O[C@H]1C(=O)[C@@]2(C)[C@H]([C@H](OC(=O)c3ccccc3)[C@]3(O)C[C@H](OC(=O)[C@H](O)[C@@H](NC(=O)c4ccccc4)c4ccccc4)C(C)=C1C3(C)C)[C@]1(OC(C)=O)CO[C@@H]1C[C@@H]2O [Paclitaxel, paclitaxel]
